Laboratory results as given in patent US12285034B2, “Human and non-human animal use of microbial anaplerotic oil” (HELIAE DEVELOPMENT, LLC, priority 2017, dated 2025).
Read-outs that look alike come from different tables or passages of the source.

Tests used:
[1] = tested on: Aurantiochytrium acetophilum HS399
Experimental: Respective Erlenmeyer flasks (250 mL) can be inoculated (1% v/v) in triplicates with a 24 hour (h) old culture of A. acetophilum HS399 and incubated in an orbital shaker at 180 rpm and 27° C.
In this implementation, the respective Erlenmeyer flasks contain 100 mL of a medium supplemented with (g/L): dextrose (50), ammonium acetate (2.3), NaCl (12.5), MgSO4 7H2O (2.5), KH2PO4 (0.5), KCl (0.5) and CaCl2 (0.1). This medium also contains trace element solution (5 ml/L) and vitamin solution (1 ml/L). The trace element solution contains (g/L): EDTA di-sodium salt (6), FeCl3 6H2O (0.29), […] (6.84), MnCl2 4H2O (0.86), ZnCl2 (0.06), CoCl2 6H2O (0.026), NiSO4 6H2O (0.052), CuSO4 5H2O (0.002), Na2MoO4H2O (0.005). The vitamin solution contains (mg/L): thiamine (100), biotin (0.5) and cyanocobalamin (0.5). All culture materials can be autoclaved (121° C., 15 min) and media can be filter sterilized before use. […] Daily samples can be collected to analyze the cell dry weight, residual glucose, culture pH, lipid and fatty acid composition of the cultures. Cell dry weights are analyzed by vacuum filtration (0.2 μm) and washed with a solution of ammonium bicarbonate. Residual glucose is analyzed using a colorimetric method based on glucose […] activity. Biomass for lipid analysis can be centrifuged and washed using purified water. The washed biomass can be freeze dried. Total lipids are analyzed using the Folch method (AOAC 996.06) and the FAMES are analyzed by gas chromatography using nonadecanoic (C19:0) acid as an internal standard.

[2] = tested on: Aurantiochytrium acetophilum HS399; assay type: cell-based; details: for OCFA / Total Fatty Acids / Total Lipids: harvest; for OCFA Productivity / Propionate deposition: 120 h
Experimental: Respective Erlenmeyer flasks (250 mL) are inoculated (1% v/v) in triplicates with a 24 h old culture of A. acetophilum HS399 and incubated in an orbital shaker at 180 rpm and 27° C.
Respective Erlenmeyer flasks contain 100 mL of a medium supplemented with (g/L): dextrose (100), ammonium acetate (4.6), NaCl (12.5), MgSO4 7H2O (2.5), KH2PO4 (0.5), KCl (0.5) and CaCl2 (0.1). This medium also contains trace element solution (5 ml/L) and vitamin solution (1 ml/L). The trace element solution contains (g/L): EDTA di-sodium salt (6), FeCl3 6H2O (0.29), […] (6.84), MnCl2 4H2O (0.86), ZnCl2 (0.06), CoCl2 6H2O (0.026), NiSO4 6H2O (0.052), CuSO4 5H2O (0.002), Na2MoO4H2O (0.005). The vitamin solution contains (mg/L): thiamine (100), biotin (0.5) and cyanocobalamin (0.5).
In this example, respective culture materials are autoclaved (e.g., 121° C., 15 min) and the media is filter sterilized before use. […] Daily samples are collected to analyze the cell dry weight, residual glucose, culture pH (see FIG. 15), and lipid and fatty acid composition of the cultures. Cell dry weights are analyzed by filtration (e.g., 0.2 μm filter media) using a vacuum and washed with a solution of ammonium bicarbonate. Residual glucose is analyzed using a colorimetric method based on glucose […] activity. Biomass for lipid analysis is centrifuged and washed using purified water. The washed biomass is freeze dried. Total lipids are analyzed using Folch method (AOAC 996.06) and the FAMES are analyzed by gas chromatography and flame ionization detection using nonadecanoic (C19:0) acid as an internal standard.

[3] = tested on: Aurantiochytrium acetophilum HS399; assay: Growth on propionate as sole carbon source (Example 9); assay type: cell-based; details: 10 g/L, pH 7
Text: FIG. 35 is a graphical representation of one implementation that illustrates results 3500 of growth of A. acetophilum HS399 with different carbon sources.

[4] = tested on: Aurantiochytrium acetophilum HS399; assay: Cyanocobalamin and propionate deposition, flask (Example 10); assay type: cell-based; details: for Final Propionate: initial 3 g/L; for Cell dry weight: propionate 3 g/L
[5] = propionate 0 + 1 + 1 + 1 g/L (Day 5)
[6] = propionate 0 + 2 + 2 + 2 g/L (Day 5)
[7] = propionate 0 + 3 g/L (Day 5), listed as propionate
[8] = propionate 3 g/L (Day 5), listed as propionate

CCC(=O)O [Propionate, propionic acid]
OCFA Productivity [1]: 0.81 ± 0.06 g/L/day
concentration strongly inhibitory to growth [1]: 10000 µg/mL
growth inhibitory concentration [1]: 3 g/L
substantially lethal residual (extracellular) concentration ([1]; pH of 6): ~15 g/L
OCFA ([1]; propionate 10 g/L, 68 h): 63.1 ± 0.7 % TFA
Total Fatty Acids ([1]; propionate 10 g/L, 68 h): 42.8 ± 0.9 % DW
Total Lipids ([1]; propionate 10 g/L, 68 h): 55.3 ± 0.6 % DW
OCFA ([1]; propionate 10 g/L, 68 h, listed as propionate): 63 % TFA
Propionate deposition ([1]; propionate printed 1100 g/L): 6.9 ± 0.5%
residual concentration giving some growth inhibition [2]: 1 g/L
increase of OCFAs productivity by feeding propionate merely during lipogenesis ([2]; P3 vs P0+3): approximately 20%
OCFA ([2]; propionate 0 + 1 + 1 + 1 g/L): 29.2 ± 0.4 % TFA
Total Fatty Acids ([2]; propionate 0 + 1 + 1 + 1 g/L): 67.2 ± 5.0 % DW
Total Lipids ([2]; propionate 0 + 1 + 1 + 1 g/L): 79.7 ± 0.6 % DW
OCFA ([2]; propionate 0 + 2 + 2 + 2 g/L): 53.5 ± 0.8 % TFA
Total Fatty Acids ([2]; propionate 0 + 2 + 2 + 2 g/L): 63.5 ± 1.6 % DW
Total Lipids ([2]; propionate 0 + 2 + 2 + 2 g/L): 76.0 ± 1.0 % DW
Total Fatty Acids ([2]; propionate 0 + 3 g/L): 66.0 ± 2.2 % DW
Total Lipids ([2]; propionate 0 + 3 g/L): 79.5 ± 0.5 % DW
OCFA ([2]; propionate 0 + 3 g/L (P0+3)): 27.6 ± 0.1 % TFA
OCFA ([2]; propionate 0 + 3 g/L (P0+3), listed as propionate): 27.4 % TFA
OCFA ([2]; propionate 3 g/L (P3)): 25.5 ± 0.2 % TFA
OCFA ([2]; propionate 3 g/L (P3), listed as propionate): 25.2 % TFA
Total Fatty Acids ([2]; propionate 3 g/L (day 0)): 64.8 ± 1.2 % DW
Total Lipids ([2]; propionate 3 g/L (day 0)): 78.0 ± 0.0 % DW
OCFA Productivity [2, 5]: 1.19 ± 0.03 g/L/day
Propionate deposition [2, 5]: 59.6 ± 1.4%
OCFA Productivity [2, 6]: 1.86 ± 0.04 g/L/day
Propionate deposition [2, 6]: 46.7 ± 0.9%
OCFA Productivity ([2]; propionate 0 + 3 g/L (Day 5)): 1.18 ± 0.02 g/L/day
Propionate deposition ([2]; propionate 0 + 3 g/L (Day 5)): 59.3 ± 1.1%
OCFA Productivity [2, 7]: 1.18 ± 0.02 g/L/day
Propionate deposition [2, 7]: 59.3±1.1%
OCFA Productivity ([2]; propionate 3 g/L (Day 5)): 1.04 ± 0.01 g/L/day
Propionate deposition ([2]; propionate 3 g/L (Day 5)): 52.2 ± 0.7%
OCFA Productivity [2, 8]: 1.18 ± 0.02 g/L/day
Propionate deposition [2, 8]: 52.2±0.7%
growth on propionate as sole carbon source [3]: did not support growth above that of the starved treatment
Propionate deposition ([4]; cyanocobalamin 0 μM, listed as Propionic acid): 99.9 ± 5.8 % fed
Propionate deposition ([4]; cyanocobalamin 0 μM, listed as propionate): 99.5 % fed
Propionate deposition ([4]; cyanocobalamin 0.00037 μM): 47.0 ± 0.9 % fed
Propionate deposition ([4]; cyanocobalamin 0.37 μM): 10.3 ± 1.0 % fed
Final Propionate ([4]; cyanocobalamin 0 μM): 0.36 g/L
Final Propionate ([4]; cyanocobalamin 0.00037 μM): 0.1 g/L
Final Propionate ([4]; cyanocobalamin 0.37 μM): 0.06 g/L
Cell dry weight ([4]; cyanocobalamin 0 μM): 35.0 ± 1.2 g/L
Cell dry weight ([4]; cyanocobalamin 0.00037 μM): 32.0 ± 0.7 g/L
Cell dry weight ([4]; cyanocobalamin 0.37 μM): 37.0 ± 1.4 g/L
